# From patent publication US5859257A, “Isoxazole compounds as cyclooxygenase inhibitors” (G. D. Searle & Co., priority 1996, dated 1999)
# Columns and labels:
# rat paw edema = test: Rat Carrageenan Foot Pad Edema Test; format: in vivo, Male Sprague-Dawley rats; conditions: oral, 3 h after carrageenan
# Procedure: Rat Carrageenan Foot Pad Edema Test
# Male Sprague-Dawley rats were selected in each group so that the average body weight was as close as possible. Rats were fasted with free access to water for over sixteen hours prior to the test. […] One hour later a subplantar injection of 0.1 mL of 1% solution of carrageenan/sterile 0.9% saline was administered and the volume of the injected foot was measured with a displacement plethysmometer connected to a pressure transducer with a digital indicator. Three hours after the injection of the carrageenan, the volume of the foot was again measured.
# [1] = test system: hyperalgesic foot withdrawal (rat); test: Rat Carrageenan-induced Analgesia Test; format: in vivo, Male Sprague-Dawley rats; conditions: oral, 3 h after carrageenan
# Procedure: Rat Carrageenan-induced Analgesia Test
# Male Sprague-Dawley rats were treated as previously described for the Carrageenan Foot Pad Edema test. Three hours after the injection of the carrageenan, the rats were placed in a special plexiglass container with a transparent floor having a high intensity lamp as a radiant heat source, positionable under the floor. After an initial twenty minute period, thermal stimulation was begun on either the injected foot or on the contralateral uninjected foot. A photoelectric cell turned off the lamp and timer when light was interrupted by paw withdrawal. The time until the rat withdraws its foot was then measured. The withdrawal latency in seconds was determined for the control and drug-treated groups, and percent inhibition of the hyperalgesic foot withdrawal determined.
# COX-1 = test: Evaluation of COX-1 activity in vitro (PGE2 ELISA, recombinant enzyme); format: biochemical, human or murine; conditions: arachidonic acid 10 μM, pH 8.0, pre-incubation 10-20 minutes
# Procedure: (§1) a. Preparation of recombinant COX baculoviruses
# (§2) Recombinant COX-1 and COX-2 were prepared as scribed by Gierse et al, [J. Biochem., 305, 479-84 (1995)]. […] Recombinant baculoviruses were isolated by transfecting 4 μg of baculovirus transfer vector DNA into SF9 insect cells (2×10^8) along with 200 ng of linearized baculovirus plasmid DNA by the calcium phosphate method. See M. D. Summers and G. E. Smith, A Manual of Methods for Baculovirus Vectors and Insect Cell Culture Procedures, Texas Agric. Exp. Station Bull. 1555 (1987). Recombinant viruses were purified by three rounds of plaque purification and high titer (10^7 -10^8 pfu/mL) stocks of virus were prepared. For large scale production, SF9 insect cells were infected in 10 liter fermentors (0.5×10^6 /mL) with the recombinant baculovirus stock such that the multiplicity of infection was 0.1. After 72 hours the cells were centrifuged and the cell pellet homogenized in Tris/Sucrose (50 mM: 25%, pH 8.0) containing 1% 3-[(3-cholamidopropyl)dimethylammonio]-1-propanesulfonate (CHAPS). The nomogenate was centrifuged at 10,000×G for 30 minutes, and the resultant supernatant was stored at -80° C. before being assayed for COX activity.
# (§3) COX activity was assayed as PGE2 formed/μg protein/time using an ELISA to detect the prostaglandin released. CHAPS-solubilized insect cell membranes containing the appropriate COX enzyme were incubated in a potassium phosphate buffer (50 mM, pH 8.0) containing epinephrine, phenol, and heme with the addition of arachidonic acid (10 μM). […] Any reaction between the arachidonic acid and the enzyme was stopped after ten minutes at 37° C./room temperature by transferring 40 μl of reaction mix into 160 μl ELISA buffer and 25 μM indomethacin. The PGE2 formed was measured by standard ELISA technology (Cayman Chemical).
# COX-2 = test: Evaluation of COX-2 activity in vitro (PGE2 ELISA, recombinant enzyme); format: biochemical, human or murine; conditions: arachidonic acid 10 μM, pH 8.0, pre-incubation 10-20 minutes
# Procedure: The COX-2 inhibition activity of the compounds of this invention illustrated in the Examples was determined by the following methods.
# as §1, §2, §3
Compound,RAT PAW EDEMA % Inhibition (rat paw edema; @ 10 mg/kg body weight),ANALGESIA % Inhibition ([1]; @ 10 mg/kg body weight),IC50 (COX-1),IC50 (COX-2),ANALGESIA % Inhibition ([1]; *@ 30 mg/kg),RAT PAW EDEMA % Inhibition (rat paw edema; *@ 30 mg/kg)
"Cc1onc(-c2ccccc2)c1-c1ccc(S(N)(=O)=O)cc1 [Example 1, 4-[5-Methyl-3-phenylisoxazol-4-yl]benzenesulfonamide]",29%,33%,–,–,–,–
"NS(=O)(=O)c1ccc(-c2c(-c3ccccc3)noc2CO)cc1 [Example 10, 4-[5-Hydroxymethyl-3-phenylisoxazol-4-yl]benzenesulfonamide]",57%,74%,> 100 µM,–,–,–
"CCc1noc(-c2ccccc2)c1-c1ccc(S(N)(=O)=O)cc1 [Example 14, 4-[3-Ethyl-5-phenylisoxazol-4-yl]benzenesulfonamide]",–,–,100 µM,< 0.1 µM,27%,–
"NS(=O)(=O)c1ccc(-c2c(-c3ccccc3)noc2CCO)cc1 [Example 66, 4-[5-(2-Hydroxyethyl)-3-phenylisoxazol-4-yl]benzenesulfonamide]",–,–,> 100 µM,< 0.1 µM,49%,43%
"NS(=O)(=O)c1ccc(-c2c(-c3ccccc3)noc2C(F)F)cc1 [Example 1j, 4-[5-difluoromethyl-3-phenylisoxazol-4-yl]benzenesulfonamide]",37%,28%,> 100 µM,< 0.1 µM,–,–
"CC(C)(O)CCCc1onc(-c2ccccc2)c1-c1ccc(S(N)(=O)=O)cc1 [Example 57, 4-[5-(4-Hydroxy-4-methylpentyl)-3-phenylisoxazol-4-yl]benzenesulfonamide]",–,–,> 100 µM,0.1 µM,5%,23%
"CC(C)(O)COCc1onc(-c2ccccc2)c1-c1ccc(S(N)(=O)=O)cc1 [Example 56, 4-[5-(2-Methyl-2-hydroxy-1-n-propyloxymethyl)-3-phenylisoxazol-4-yl]benzenesulfonamide]",–,–,> 100 µM,0.2 µM,27%,29%
